Laboratory results: patent publication US9572881B2, “Halogenated compounds for photodynamic therapy” (Nanoquantum Sciences, Inc., priority 2012, dated 2017)
Several values for one entry are separate records, joined by “and”; a condition that tells them apart may be missing. Identical values can stand only once.

What was measured:
[1] = Fluorescence emission spectra and quantum yield relative to HITC; format: physicochemical; conditions: for QY (fluor): given as fraction in synthesis example
Procedure: Fluorescence spectra for the dyes were determined at RT on a Varian Cary Eclipse spectrofluorometer in a standard 1-cm quartz cell. The spectra were corrected. All concentrations of the fluorophores were chosen to be between 0.2 and 1.0 μM.
For the determination of the quantum yields (QY), the integrated relative intensities of the dyes or dye-protein conjugates, were measured against HITC as the reference. All absorbances at excitation wavelength (λexc) were in the range of 0.04-0.08 (when measured in a 1-cm cell).
The QY of each sample was independently measured 3-4 times and the average value was calculated.

[2] = Singlet oxygen quantum yield, DPBF scavenger method in ethanol; format: physicochemical; conditions: measured in ethanol, 650 nm laser, ICG reference
Procedure: The modified relative photochemical method of Spiller W. et al. (J. Porphyrins Phthalocyanines, 1998, V. 2, 145-158) utilizing 1,3-diphenylisobenzofuran (DPBF) as a chemical scavenger was used to determine the photosensitiser's singlet oxygen quantum yields (ΦΔ) in ethanol solutions.
Ethanolic solutions containing DPBF (10 μM) and sensitizers with absorbance (optical density) in a range between 0.09 and 0.10 at 650 nm (measured in a standard 1-cm quartz cell) were prepared. Samples were saturated with oxygen by bubbling. Next, 3 mL of the solution were placed in a 1-cm cell equipped with a stirring bar and a 10 mW, 650 nm diode laser was hermetically attached to the top of cuvette so as to avoid solvent evaporation and to provide a light beam direction from top to bottom of the cuvette. The solution in the cuvette was irradiated with the diode laser under continuous stirring for a certain time. DPBF consumption was determined by monitoring DPBF bleaching over irradiation time using absorption spectroscopy at 411 nm (extinction coefficient 22,000 M^−1 cm^−1). At least six absorption spectra were obtained for each solution at different irradiation times until the DPBF absorbance reduced at least to the 10% of the initial absorbance.
The decrease of DPBF absorbance at 411 nm versus irradiation time was plotted for each photosensitizer and the DPBF degradation rate constant (K) characterizing the reaction rate of singlet oxygen with DPBF in presence of a sensitizer was calculated.

[3] = tested on: bovine erythrocytes; test: Phototoxicity (glow lamp) and dark toxicity by hemolysis of bovine erythrocytes; format: cell-based; conditions: Dark
Procedure: (§1) Bovine erythrocytes were isolated from blood plasma stored with sodium citrate. 1 mL of bovine blood was treated at centrifuge (3,000 rpm) for 10 min to precipitate erythrocytes. The supernatant was decanted, 2 mL of physiological solution were added, treated and erythrocytes were precipitated with centrifuge. The washing procedure was repeated for 3 times and the precipitated erythrocytes were collected. […] Cells were dye-incubated for 45 minutes at 37° C. in the dark. Then the examined suspensions of cells (erythrocytes) were placed at a distance of 30-cm from a 250 W glow red-lamp equipped with a water-based heat filter and irradiated with occasional stirring. After irradiation, cells were stored at 4° C. for 15 hours. […] The hemolysis level (percentage of hemolyzed cells) was determined as the ratio of absorbances of the supernatant and a solution of 100% hemolysed cells. The 100% hemolysis was taken as the value obtained when the given number of erythrocytes were suspended in distilled water.

[4] = as above; format: cell-based; conditions: bovine, bovine erythrocytes, Glow Lamp; for hemolysis at 30 min, 0.5 µM: exposure 30 min
Procedure: as §1

[5] = Absorption spectra and extinction coefficients of dyes; format: physicochemical
Procedure: Absorption spectra were measured at RT on a Perking Elmer Lambda 35 UV/Vis spectrophotometer. […] The stock solution was diluted (1:2000) and the absorbance was measured in a 5-cm standard quartz cell. All dye concentrations were in the range of 1.1 to 2.0×10^−7 M. The extinction coefficients were calculated according to Lambert-Beer's law.

[6] = cited from earlier work
[7] = background statement, at ~780 nm; cited from earlier work
[8] = ethanol; reference value from Cardillo et al.; cited from earlier work

| Emission max. ([1]; Water) [nm] | Extinction Coefficient ([5]; Methanol) | Extinction Coefficient ([5]; Water) | Compound | Emission max. ([1]; Methanol) [nm] | Fluorescence quantum yield ([1]; Methanol) [%] | Singlet oxygen generation quantum yield ΦΔ [2] [%] | Hemolysis ([3]; 5 μM) [%] | hemolysis at 60 min, 0.1 µM ([4]; exposure 60 min) [%] | hemolysis at 30 min, 0.5 µM [4] [%] | Absorption max. ([5]; Methanol) | Hemolysis ([3]; 10 μM) [%] | also measured |
| --- | --- | --- | --- | --- | --- | --- | --- | --- | --- | --- | --- | --- |
|  |  |  | CN1\C(=C/C=C/C=C/C=C/C2=[N+](C)c3cc(I)c(I)c(I)c3C2(C)C)C(C)(C)c2c1cc(I)c(I)c2I.[I-] [I-76, 4,5,6-triiodo-1,3,3-trimethyl-2-[7-(4,5,6-triiodo-1,3,3-trimethyl-2,3-dihydro-1H-2-indolyliden)-1,3,5-heptatrienyl]-3H-indolium iodide] | 785 | 43 | 50 | 2 | 43 | 46 | 754 nm and 755 nm |  | Hemolysis ([3]; 50 μM): 12% |
| 810 | 200,000 M^−1cm^−1 | 114,000 M^−1cm^−1 | CC1(C)C(/C=C/C=C/C=C/C=C2\N(CCCCS(=O)(=O)[O-])c3ccc4ccccc4c3C2(C)C)=[N+](CCCCS(=O)(=O)[O-])c2ccc3ccccc3c21.[Na+] [ICG, Indocyanine green, reference compound] | 818 | 16 | 12 |  |  |  |  |  | quantum yield (reporter) ([6]; in water, background statement): 0.5-1.3%; extinction coefficients [7]: 200,000 M^−1 cm^−1; singlet oxygen quantum yield ΦΔ of reference [8]: 12% |
| 786 | 210,000 M^−1cm^−1 | 100,000 M^−1cm^−1 | CC1(CCCCCC(=O)O)C(/C=C/C=C/C=C/C=C2\N(CCCS(=O)(=O)O)c3cc(I)c(I)c(I)c3C2(C)CCCCCC(=O)O)=[N+](CCCS(=O)(=O)[O-])c2cc(I)c(I)c(I)c21 (stereo not drawn) [I-86, 3-(3-(5-carboxypentyl)-2-7-[3-(5-carboxypentyl)-4,5,6-triiodo-3-methyl-1-(3-sulfopropyl)-2,3-dihydro-1H-2-indolyliden]-1,3,5-heptatrienyl-4,5,6-triiodo-3-methyl-3H-1-indoliumyl)-1-propanesulfonate] | 795 | 44 | 13 |  | 70 | 74 | 765 nm | 3 | Emission max. ([1]; BSA conjugate): 796 nm; Fluorescence quantum yield ([1]; BSA conjugate, subject to D/P): 5-7%; QY (fluor) ([1]; methanol): 0.44; QY (fluor) ([1]; water): 0.006; Absorption max. ([5]; BSA conjugate): 778 nm; Absorption max. ([5]; Water): 721 nm and 760 nm; Extinction coefficient ε at λmax (abs) ([5]; water, synthesis example, no unit): 210,000 |
|  |  |  | CN1\C(=C/C=C/C=C/C=C/C2=[N+](C)c3ccccc3C2(C)C)C(C)(C)c2ccccc21.[I-] [HITC, 1,1′,3,3,3′,3′-hexamethylindotricarbocyanine, reference compound] | 768 | 28 | 5 | 2.0 |  |  | 740 nm | 6.7 | QY of reference ([6]; in methanol, reference standard): 28%; hemolysis at 60 min, 1 µM ([4]; 1 μM, exposure 60 min): 4.4%; hemolysis at 120 min, 1 µM ([4]; 1 μM, exposure 120 min): 5.4%; hemolysis at 60 min, 5 µM ([4]; 5 μM, exposure 60 min): 65%; hemolysis at 120 min, 5 µM ([4]; 5 μM, exposure 120 min): 74% |
